Data on 29 molecules can be found in ChEMBL document CHEMBL1134222, “The identification of a potent, water soluble inhibitor of lipoprotein-associated phospholipase A2” (Bioorg Med Chem Lett, 2001).

pIC50: −log10 of the molar value.

As a reminder, the pIC50 is the negative decadic logarithm of the IC50, by convention in mol/L. High values mean a low IC50, low ones a high IC50. Usually inhibition stands for how much of the control response was suppressed. A lower inhibition goes with little suppression.

Series [1] is described as follows: Concentration required for inhibition of human serine dependent Phospholipase A2.
For series [2], the species on record is Homo sapiens. Kind of series: Compound was tested for inhibition of plasma enzyme in whole human plasma at concentration 100 nM. It counts as functional.
For series [3], the species on record is Rattus norvegicus. Nature of the series: Compound was tested for its percent CNS penetration in rat. The series is classed as functional, Central nervous system.
For series [4], the system named is Rattus norvegicus. Nature of the series: Compound was tested for liver blood flow after intravenous administration in rat. It counts as functional.
Series [5] in a line: Rapid clearance after intravenous administration in rat was determined. It counts as ADME, organism-based. Particulars: blood, read-out: CLb.
Series [6] relates to Platelet-activating factor acetylhydrolase (Rattus norvegicus). Nature of the series: Compound was tested for inhibition of Lipoprotein associated phospholipase A2 in rat. The note with it: concentration not given here.

In series [1], `CCCCCCCCN(C)C(=O)Cn1cc(Cc2cnc(=O)n(CC(=O)N3CCOCC3)c2)c(=O)nc1SCc1ccc(F)cc1` showed a pIC50 of 8.00.
In series [1], `CCCCCCCCN(C)C(=O)Cn1cc(Cc2cnc(=O)n(CC(=O)N3CCN(C(C)=O)CC3)c2)c(=O)nc1SCc1ccc(F)cc1` showed a pIC50 of 8.30.
Turning to `CCCCCCCCCCCCN(C)C(=O)Cn1cc(Cc2cnc(=O)n(CC(=O)NCCO)c2)c(=O)nc1SCc1ccc(F)cc1`, in series [1], the pIC50 is 9.22. The inhibition at 0.1 µM in series [2] was 79%.
`CCCCCCCCN(C)C(=O)Cn1cc(Cc2cnc(=O)n(CC(=O)NCCO)c2)c(=O)nc1SCc1ccc(F)cc1` had a pIC50 in series [1] of 8.10.
Turning to `CCCCCCCCN(C)C(=O)Cn1cc(Cc2cnc(OCc3ccccc3)nc2)c(=O)nc1SCc1ccc(F)cc1`, the pIC50 in series [1] was 8.15.
With `CCCCCCCCCCCCN(C)C(=O)Cn1cc(Cc2cncnc2)c(=O)nc1SCc1ccc(F)cc1`, in series [3], the Activity was under 2%.
With `CCCCCCCCCCCCN(C)C(=O)Cn1cc(Cc2cnc(=O)n(CC(=O)NC)c2)c(=O)nc1SCc1ccc(F)cc1`, the pIC50 in series [1] was 9.40. For the same molecule, the inhibition at 0.1 µM in series [2] was 80%.
Take `CCCCCCCCN(C)C(=O)Cn1cc(Cc2cnc(=O)n(C)c2)c(=O)nc1SCc1ccc(F)cc1`: the pIC50 in series [1] is 7.57.
As for `CCCCCCCCN(C)C(=O)Cn1cc(Cc2cnc(OCC)nc2)c(=O)nc1SCc1ccc(F)cc1`, the pIC50 in series [1] is 8.52.
In series [1], `CCCCCCCCCCCCN(C)C(=O)Cn1cc(Cc2cnc(=O)n(CC(=O)O)c2)c(=O)nc1SCc1ccc(F)cc1` showed a pIC50 of 9.00. Besides, the Activity in series [3] came out at 37%; in series [4], 85%. Further, in series [5], the clearance was found to be 76 mL/min/kg. Further, the inhibition in series [6] came to 83%.
As for `CCCCCCCCCCCCN(C)C(=O)Cn1cc(Cc2cnc(=O)n(CC(=O)OCC)c2)c(=O)nc1SCc1ccc(F)cc1`, the pIC50 in series [1] is 8.40.
In turn, `CCCCCCCCN(C)C(=O)Cn1cc(Cc2cnc(=O)n(CC(=O)OCC)c2)c(=O)nc1SCc1ccc(F)cc1` showed a pIC50 in series [1] of 7.12.
`CCCCCCCCCCCCN(C)C(=O)Cn1cc(Cc2cnc(=O)n(C)c2)c(=O)nc1SCc1ccc(F)cc1` showed a pIC50 in series [1] of 8.30.
`CCCCCCCCN(C)C(=O)Cn1cc(Cc2cnc(=O)n(CC(=O)O)c2)c(=O)nc1SCc1ccc(F)cc1` had a pIC50 in series [1] of 7.85. This molecule had an Activity in series [3] of 10%.
With `CCCCCCCCN(C)C(=O)Cn1cc(Cc2cnc(=O)n(CC(=O)NC)c2)c(=O)nc1SCc1ccc(F)cc1`, the pIC50 in series [1] was 8.22. The molecule further came in with an Activity in series [3] of under 7%.
In series [1], `CCCCCCCCN(C)C(=O)Cn1cc(Cc2cnc(=O)n(CCO)c2)c(=O)nc1SCc1ccc(F)cc1` had a pIC50 of 8.30.
In turn, `CCCCCCCCCCCCN(C)C(=O)Cn1cc(Cc2cnc(O)nc2)c(=O)nc1SCc1ccc(F)cc1` gave a pIC50 in series [1] of 9.05.
On the same count and under the same terms, for `CCCCCCCCNC(=O)Cn1cc(Cc2cncnc2)c(=O)nc1SCc1ccc(F)cc1` the value was 8.15.
Same read-out and setting: for `CCCCCCCCCCCCN(C)C(=O)Cn1cc(Cc2cnc(=O)n(CCO)c2)c(=O)nc1SCc1ccc(F)cc1` the value was 9.00.
`CCCCCCCCN(C)C(=O)Cn1cc(Cc2cnc(O)nc2)c(=O)nc1SCc1ccc(F)cc1` gave a pIC50 in series [1] of 8.40. The molecule further had an Activity in series [3] of 7%.
Molecule `CCCCCCCCN(C)C(=O)Cn1cc(Cc2cnc(=O)n(CC(=O)N3CCNC(=O)C3)c2)c(=O)nc1SCc1ccc(F)cc1` gave a pIC50 in series [1] of 8.70.
`CCCCCCCCN(C)C(=O)Cn1cc(Cc2cnc(=O)n(CC(=O)NCCC)c2)c(=O)nc1SCc1ccc(F)cc1` gave a pIC50 in series [1] of 7.96.
In turn, `CCCCCCCCN(C)C(=O)Cn1cc(Cc2cnc(=O)n(CC)c2)c(=O)nc1SCc1ccc(F)cc1` showed a pIC50 in series [1] of 7.70.
With `CCCCCCCCCCCCN(C)C(=O)Cn1cc(Cc2cnc(=O)n(CC(=O)N3CCNC(=O)C3)c2)c(=O)nc1SCc1ccc(F)cc1`, in series [1], the pIC50 was 9.40.
The molecule `CCCCCCCCN(C)C(=O)Cn1cc(Cc2cncnc2)c(=O)nc1SCc1ccc(F)cc1` had a pIC50 in series [1] of 7.82.
In series [1], `CCCCCCCCN(C)C(=O)Cn1cc(Cc2cnc(OC)nc2)c(=O)nc1SCc1ccc(F)cc1` showed a pIC50 of 8.40.
With `CCCCCCCCCCCCN(C)C(=O)Cn1cc(Cc2cnc(=O)n(CC(=O)N3CCOCC3)c2)c(=O)nc1SCc1ccc(F)cc1`, the pIC50 in series [1] was 9.15. In series [3], this molecule returned an Activity of under 7%. In series [2], this molecule registered an inhibition at 0.1 µM of 80%.
On to `CCCCCCCCCCCCN(C)C(=O)Cn1cc(Cc2cnc(OC)nc2)c(=O)nc1SCc1ccc(F)cc1`, for which the pIC50 in series [1] was 9.00.
Still for that read-out and setting: for `CCCCCCCCN(C)C(=O)Cn1cc(Cc2cnc(=O)n(CC(=O)N3CCN(C)CC3)c2)c(=O)nc1SCc1ccc(F)cc1` the value was 8.52.
